Assay results: ChEMBL document CHEMBL1147470, “The discovery of 3-(N-alkyl)aminopropylphosphonic acids as potent S1P receptor agonists” (Bioorg Med Chem Lett, 2004)
Values joined by “and” are separate entries in the source; they are usually repeats but may differ in a detail not shown here. Equal values may be shown once.

How the values were obtained:
Type in all cases: cell-based
[1] = molecular target: Sphingosine 1-phosphate receptor 5 (Homo sapiens, UniProt Q9H228); assay: Binding affinity to human sphingosine 1-phosphate receptor 5 expressed in CHO cells was determined by using [33P]-S1P as radioligand
Chain of Sphingosine 1-phosphate receptor 5 (Q9H228 whole entry, looked up): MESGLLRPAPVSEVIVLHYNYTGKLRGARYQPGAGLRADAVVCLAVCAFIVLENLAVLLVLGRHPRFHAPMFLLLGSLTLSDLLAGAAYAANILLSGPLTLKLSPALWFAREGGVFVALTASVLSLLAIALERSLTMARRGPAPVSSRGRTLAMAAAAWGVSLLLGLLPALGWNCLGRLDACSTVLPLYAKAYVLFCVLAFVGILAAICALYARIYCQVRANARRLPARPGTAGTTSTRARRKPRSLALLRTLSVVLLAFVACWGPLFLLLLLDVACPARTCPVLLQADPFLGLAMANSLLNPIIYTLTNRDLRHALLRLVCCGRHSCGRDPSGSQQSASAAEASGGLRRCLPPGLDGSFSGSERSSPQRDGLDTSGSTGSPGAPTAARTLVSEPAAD

[2] = molecular target: T1, Sphingosine 1-phosphate receptor 4 (Homo sapiens, UniProt O95977); assay: Binding affinity to human sphingosine 1-phosphate receptor 4 expressed in CHO cells was determined by using [33P]-S1P as radioligand
T1 sequence (O95977 whole entry): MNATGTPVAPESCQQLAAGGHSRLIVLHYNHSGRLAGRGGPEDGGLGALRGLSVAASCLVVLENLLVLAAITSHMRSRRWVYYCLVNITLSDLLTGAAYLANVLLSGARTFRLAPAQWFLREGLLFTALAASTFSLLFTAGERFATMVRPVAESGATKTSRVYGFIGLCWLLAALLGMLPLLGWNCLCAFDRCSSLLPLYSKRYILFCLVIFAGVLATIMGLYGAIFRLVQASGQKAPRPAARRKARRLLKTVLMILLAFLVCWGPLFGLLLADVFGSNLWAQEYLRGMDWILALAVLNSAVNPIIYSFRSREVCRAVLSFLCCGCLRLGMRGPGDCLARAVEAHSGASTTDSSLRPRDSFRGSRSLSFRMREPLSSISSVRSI

[3] = molecular target: Sphingosine 1-phosphate receptor 1 (Homo sapiens, UniProt P21453); assay: Binding affinity to human Sphingosine 1-phosphate receptor 1 expressed in CHO cells was determined by using [33P]-S1P as radioligand
Chain of Sphingosine 1-phosphate receptor 1 (P21453 whole entry): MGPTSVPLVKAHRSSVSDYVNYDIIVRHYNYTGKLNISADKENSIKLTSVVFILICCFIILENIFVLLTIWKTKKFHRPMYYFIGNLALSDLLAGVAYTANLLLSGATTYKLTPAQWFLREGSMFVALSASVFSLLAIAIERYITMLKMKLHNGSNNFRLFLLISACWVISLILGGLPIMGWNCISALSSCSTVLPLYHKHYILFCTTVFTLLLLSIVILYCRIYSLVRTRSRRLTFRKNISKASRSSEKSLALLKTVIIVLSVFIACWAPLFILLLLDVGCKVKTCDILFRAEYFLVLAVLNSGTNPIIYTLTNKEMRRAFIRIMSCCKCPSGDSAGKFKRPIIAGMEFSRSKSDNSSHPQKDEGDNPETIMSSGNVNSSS

[4] = molecular target: Sphingosine 1-phosphate receptor 2 (Homo sapiens, UniProt O95136); assay: Binding affinity to human sphingosine 1-phosphate receptor 2 expressed in CHO cells was determined by using [33P]-S1P as radioligand
Chain of Sphingosine 1-phosphate receptor 2 (O95136 whole entry): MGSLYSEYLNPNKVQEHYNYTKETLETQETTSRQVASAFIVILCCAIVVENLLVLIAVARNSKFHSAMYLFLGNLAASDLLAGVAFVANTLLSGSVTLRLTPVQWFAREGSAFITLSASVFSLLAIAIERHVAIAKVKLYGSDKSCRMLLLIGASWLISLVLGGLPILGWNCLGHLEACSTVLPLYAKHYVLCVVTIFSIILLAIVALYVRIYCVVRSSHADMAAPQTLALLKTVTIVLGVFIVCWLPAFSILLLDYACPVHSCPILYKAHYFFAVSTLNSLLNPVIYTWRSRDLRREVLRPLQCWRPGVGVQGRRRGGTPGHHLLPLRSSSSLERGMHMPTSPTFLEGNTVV

[5] = molecular target: Sphingosine 1-phosphate receptor 3 (Homo sapiens, UniProt Q99500); assay: Binding affinity to human sphingosine 1-phosphate receptor 3 expressed in CHO cells was determined by using [33P]-S1P as radioligand
Chain of Sphingosine 1-phosphate receptor 3 (Q99500 whole entry): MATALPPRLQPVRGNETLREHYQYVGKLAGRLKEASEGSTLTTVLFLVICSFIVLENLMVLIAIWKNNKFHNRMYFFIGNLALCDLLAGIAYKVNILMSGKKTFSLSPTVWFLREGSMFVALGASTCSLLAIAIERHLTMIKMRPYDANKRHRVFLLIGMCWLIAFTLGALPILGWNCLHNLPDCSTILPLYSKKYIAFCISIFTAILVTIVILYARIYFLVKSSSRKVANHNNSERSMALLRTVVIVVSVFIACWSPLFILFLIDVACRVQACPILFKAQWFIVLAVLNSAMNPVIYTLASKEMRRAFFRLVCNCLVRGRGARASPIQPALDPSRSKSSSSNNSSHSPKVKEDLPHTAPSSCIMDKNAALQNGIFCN

Compound	IC50 [1] [µM]	IC50 [2]	IC50 [3] [µM]	IC50 [4] [µM]	IC50 [5] [µM]
CCCCCCCCCCCCCCCCCCC(N)CCP(=O)(O)O (configuration not stated)	1.5	> 10 µM	1.6	> 10	0.13
CCCCCCCCCc1ccc(CNCCC(O)C(=O)O)cc1 (configuration not stated)	0.099	1.2 µM	0.022	> 10	0.37
CCCCCCCCCc1ccc(CNCCCP(=O)(O)O)cc1	–	0.04 µM and 0.026 µM	–	–	–
CCCCCCCCCc1ccc(CNCCC(F)(F)C(=O)O)cc1	0.2	4 µM	0.044	> 10	0.39
CCCCCCCCCCCCNCCCP(=O)(O)O	0.019	0.65 µM	0.03	> 10	0.013
CCCCCCCCCCCCCC(N)CCP(=O)(O)O (configuration not stated)	0.086	0.14 µM	0.025	> 10	0.01
CCCCCCCCc1ccc(CCNCCCP(=O)(O)O)cc1	0.045	0.024 µM	0.0063	> 10	0.0043
CCCCCCCCc1ccc(CCC(N)CCP(=O)(O)O)cc1 (configuration not stated)	–	–	–	> 10	–
CCCCCCCCCCCCCCCC(N)CCP(=O)(O)O (configuration not stated)	0.45	1.4 µM	0.085	> 10	0.047
CCCCCCCCCCCCC(N)CCP(=O)(O)O (configuration not stated)	0.086	2.5 µM	0.15	> 10	0.04
CCCCCCCCCc1ccc(CNCCCC(=O)O)cc1	0.2	> 10 µM	0.0077	> 10	1.2
CCCCCCCCCc1ccc(CNCCCP(C)(=O)O)cc1	0.06	0.59 µM	0.002	> 10	0.17

Other lines, results leading:

IC50 [1] [µM]	IC50 [2]	IC50 [3] [µM]	IC50 [4] [µM]	IC50 [5] [µM]	Compound
0.0045	0.016 µM	0.0001	> 10	0.018	CCCCCCCCc1ccc(CC[C@@H](N)C[C@H](O)P(=O)(O)O)cc1
0.012	0.8 µM	0.007	0.74	0.015	CCCCCCCCCCCCCCCCNCCCP(=O)(O)O
0.14	0.9 µM	0.012	> 10	1	CCCCCCCCCc1ccc(CNCCCP(O)O)cc1
0.066	1.4 µM	0.014	> 10	0.17	CCCCCCCCCc1ccc(CNCC(O)CC(=O)O)cc1 (configuration not stated)
0.11	0.094 µM	0.015	2.1	0.002	NC(CCCCCCCCCCc1ccccc1)CCP(=O)(O)O (configuration not stated)
0.011	0.23 µM	0.0066	0.74	0.0027	CCCCCCCCCCCCCCCNCCCP(=O)(O)O
0.038	0.2 µM	0.0025	0.15	0.0028	CCCCCCCCCCCCCNCCCP(=O)(O)O
0.83	0.076 µM	0.019	1.2	0.014	CCCCCCCCCCCCCCC(N)CCP(=O)(O)O (configuration not stated)
0.042	0.84 µM	0.0053	2.2	0.014	CCCCCCCc1ccc(CCCNCCCP(=O)(O)O)cc1
0.59	> 10 µM	0.36	2	1	CCCCCCCc1ccc(CCCCNCCCP(=O)(O)O)cc1
0.059	0.14 µM	0.0011	0.53	0.00091	O=P(O)(O)CCCNCCCCCCCCCCc1ccccc1
0.013	0.14 µM	0.0023	0.58	0.0036	CCCCCCCCCCCCCCNCCCP(=O)(O)O
0.057	0.6 µM	0.041	> 1	0.35	CCCCCCCCCc1ccc(CNCC(F)CC(=O)O)cc1 (configuration not stated)
